Measurements: article PMC9652379, “Safety evaluations of a synthetic antimicrobial peptide administered intravenously in rats and dogs” (Scientific Reports, 2022)

System: rats
Test: Respiratory function in rats (whole body plethysmography)
Format: in vivo, rat
Conditions: rats, 15 mg/kg single iv injection, positive control
Experimental: The possible side-effects of SET-M33 on respiratory function were evaluated after administration of the peptide as a single intravenous bolus at doses of 5, 9 and 15 mg/kg with vehicle (eight animals/group). Respiratory rate, tidal volume and minute volume were assessed. As in the case of neurological toxicity and the 4-week toxicity study, again the dose levels were selected on the basis DRF (above). Baclofen, a muscle relaxer and antispasmodic used to treat muscle pain, spasms and stiffness in people with multiple sclerosis or spinal cord injury or disease, was used as positive control. It was administered as a single intravenous injection at a dose of 15 mg/kg.
Whole body, bias flow plethysmography equipment was used[51]. Respiratory parameters (respiratory rate, tidal volume and minute volume) were derived from the changes in pressure associated with the warming and humidification of the air breathed in by the animal. This was monitored by specific probes located in the plethysmograph chambers. Bias flow (room air) was set at approximately 2.5 L/min. On a day prior to the first day of dosing, all animals were habituated to the plethysmographs for approximately 2 h. The study was run over 4 days and 10 animals (two from each group) were examined each day. On the day of dosing, the animals were placed in the plethysmographs for pre-dose recording (session 1) of respiratory parameters for 60 min. Groups of 8 rats were then removed from the chambers and dosed by intravenous bolus injection with vehicle, SET-M33 or positive control. Immediately after dosing, the rats were placed in the whole body plethysmographs, where they could move about freely, to continuously record respiratory parameters for 4 h post-dose (undisturbed recording). Immediately after the last post-dose recording, the animals were killed humanely by a rising concentration of carbon dioxide. Death was confirmed by dislocation of the neck. Respiratory parameters were reported at the following time points: 0, 30, 60, 90, 120, 150, 180, 210 and 240 min. Time 0 coincided with the mean value of the last 20 min of data recorded in the 60-min pre-dose period. All other time points were the mean of 10-min recordings (an average of every 10 breaths) around each time point. Each post-dose time point was analysed separately by analysis of covariance. Factors in the model were group and day of data collection, with pre-dose values as covariate.

SMILES: NCC(CC(=O)O)c1ccc(Cl)cc1 (centres unmarked) [Baclofen, reference compound]
- respiratory rate vs vehicle: sharp, statistically significant decrease
- tidal volume and minute volume vs vehicle: sharp, statistically significant increases
